{"source": "PubChem BioAssay AID1963982", "about": "(Molecular Pharmacology Branch, DTP, NCI, 2024);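 further: spheroids exposed to compounds for seven days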;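 on viability, T/C: 100% = DMSO vehicle control viability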", "test_system": "313798-341-R-J2-PDC spheroids, viability", "experiment": "Anticancer human tumor 313798-341-R-J2-PDC patient-derived cervical squamous cell carcinoma cell line growth inhibition [PI3K]", "details": "spheroids with HUVEC and MSC; for viability, T/C: stronger effect = lower value", "source_text": "Combinatorial screen of targeted agents with the PI3K inhibitors inavolisib, alpelisib, duvelisib, and copanlisib in multi-cell type tumor spheroids\nA high-throughput screen of multi-cell type tumor spheroids was designed to identify active combinations of targeted small molecules and PI3K pathway inhibitors. Complex spheroids include a stromal component modeled by human endothelial cells (HUVEC) and fibroblasts modeled by human mesenchymal stem cells (MSCs). The concentration ranges selected for each drug and investigational agent were based upon clinically achievable concentrations if the clinical Cmax of the agent was known.\nCompounds. The drugs and investigational agents: inavolisib (NSC800729), alpelisib (NSC765974), duvelisib (NSC772469), copanlisib (NSC816437), ipatasertib (NSC767898), afuresertib (NSC778305), talazoparib (NSC767125), sapanisertib (NSC764658), selumetinib (NSC741078), tovorafenib (DAY101, NSC766906), vemurafenib (NSC761431), ravoxertinib (NSC781343), sotorasib (NSC818433), MRTX1133 (NSC 836407), abemaciclib (NSC 768073), palbociclib (NSC758247), venetoclax (NSC 766270), SY5609 (NSC837396), enzalutamide (NSC755605), and darolutamide (NSC825331), were obtained from the National Cancer Institute (NCI) Developmental Therapeutics Program Chemical Repository. The FDA-approved anticancer drug set is available from the NCI Developmental Therapeutics Program. […] The stock solutions were prepared in dimethyl sulfoxide (DMSO, Sigma-Aldrich, St. Louis, MO, cat. D2650) at 800-fold the tested concentration and stored at -70 degrees C prior to their use. All drugs and investigational agents were tested over a range starting from a high concentration at or near the clinical Cmax and decreasing in half-log increments. If the clinical Cmax for an agent had not been determined, the highest concentration tested was 10 microM.\nCell Culture. All cells were maintained in an incubator at 37 degrees C and 5% CO2 with 95% humidity. The PDC lines were cultured according to standard operating procedures established by the NCI PDMR (https://pdmr.cancer.gov/sops/default.htm). All PDCs were thawed and cultured in Matrigel-coated flasks prepared with a working solution of 1X Ham's F-12 nutrient mix, without supplementation (Invitrogen, Waltham, MA, cat. 11765054), 100 U/mL penicillin-streptomycin (Invitrogen, cat. 15140122), and 2.5% Matrigel (Corning Inc., Corning, NY, cat. 354248) for the first three passages. The 354836-022-R-J1-PDC, 475296-252-R-J1-PDC, and 997726-040-R-J2-PDC lines were cultured in 6A media, which includes advanced DMEM/F-12 (Thermo Fisher Scientific, cat. 12634028), 10 mM HEPES (Thermo Fisher Scientific, cat. 15630080), 1X GlutaMAX supplement (Thermo Fisher Scientific, cat. 35050061), 0.1 mg/mL primocin (InvivoGen, San Diego, CA, cat. ant-pm-2), 10% defined fetal bovine serum, heat inactivated (HyClone Laboratories Inc., Logan, UT, cat. SH30070.03HI), 50% L-WRN conditioned media (ATCC, cat. CRL-3276), 1.25 mM N-Acetyl-L-cysteine (Sigma-Aldrich, cat. A9165), 10 mM nicotinamide (Sigma-Aldrich, cat. N0636), 1X B-27 supplement (Thermo Fisher Scientific, cat. 17504044), 1X N-2 supplement (Thermo Fisher Scientific, cat. 17502048), and 10 microM Y-27632 dihydrochloride (Tocris Bioscience, Bristol, United Kingdom, cat. 1254). The 624824-186-R-J2-PDC line was cultured in 6C/Colon 1B media, which includes all 6A media components plus 50 ng/mL human EGF recombinant protein (Thermo Fisher Scientific, cat. PHG0311). […]", "data": [{"smiles": "C#Cc1c(F)ccc2cc(O)cc(-c3ncc4c(N5CC6CCC(C5)N6)nc(OCC56CCCN5CC(F)C6)nc4c3F)c12", "note": "(stereo unspecified)", "values": [{"measurement": "viability, T/C", "setting": "compound 0.0316 µM", "value": "102% [middle of 4 runs]"}, {"measurement": "viability, T/C", "setting": "compound 0.1 µM", "value": "105% [middle of 4 runs]"}, {"measurement": "viability, T/C", "setting": "compound 0.316 µM", "value": "108% [middle of 4 runs]"}, {"measurement": "viability, T/C", "setting": "compound 1 µM", "value": "98.5% [middle of 4 runs]"}, {"measurement": "viability, T/C", "setting": "compound 3.16 µM", "value": "106% [middle of 4 runs]"}, {"measurement": "viability, T/C", "setting": "compound 10 µM", "value": "95.2% [middle of 4 runs]"}, {"measurement": "IC50", "setting": "curve of compound", "value": "> 10000", "unit": "nM"}]}, {"smiles": "Cn1ncc(Cl)c1-c1cc(C(=O)NC(CN)Cc2cccc(F)c2)sc1Cl", "note": "(stereo unspecified)", "values": [{"measurement": "viability, T/C", "setting": "compound 0.0316 µM", "value": "105% [middle of 4 runs]"}, {"measurement": "viability, T/C", "setting": "compound 0.1 µM", "value": "97.5% [middle of 4 runs]"}, {"measurement": "viability, T/C", "setting": "compound 0.316 µM", "value": "79.1% [middle of 4 runs]"}, {"measurement": "viability, T/C", "setting": "compound 1 µM", "value": "49.9% [middle of 4 runs]"}, {"measurement": "viability, T/C", "setting": "compound 3.16 µM", "value": "34.7% [middle of 4 runs]"}, {"measurement": "viability, T/C", "setting": "compound 10 µM", "value": "34.5% [middle of 4 runs]"}, {"measurement": "IC50", "setting": "curve of compound", "value": "996 nM [middle of 4 runs]"}]}, {"smiles": "Cn1cnc2c(F)c(Nc3ccc(Br)cc3Cl)c(C(=O)NOCCO)cc21", "note": "+ CC(Nc1ccc2c(c1)OCCn1cc(N3C(=O)OCC3C(F)F)nc1-2)C(N)=O", "values": [{"measurement": "IC50", "setting": "curve of first compound, second compound 0.00316 µM", "value": 1200, "unit": "nM"}, {"measurement": "IC50", "setting": "curve of first compound, second compound 0.01 µM", "value": 841, "unit": "nM"}, {"measurement": "IC50", "setting": "curve of first compound, second compound 0.0316 µM", "value": 547, "unit": "nM"}, {"measurement": "IC50", "setting": "curve of first compound, second compound 0.1 µM", "value": 265, "unit": "nM"}, {"measurement": "IC50", "setting": "curve of first compound, second compound 0.316 µM", "value": 26.1, "unit": "nM"}, {"measurement": "IC50", "setting": "curve of first compound, second compound 1 µM", "value": "< 9.49", "unit": "nM"}, {"measurement": "viability, T/C", "setting": "second compound 0.00316 µM, first compound 0.00949 µM", "value": 87.2, "unit": "%"}, {"measurement": "viability, T/C", "setting": "second compound 0.00316 µM, first compound 0.03 µM", "value": 107, "unit": "%"}, {"measurement": "viability, T/C", "setting": "second compound 0.00316 µM, first compound 0.0949 µM", "value": 97.8, "unit": "%"}, {"measurement": "viability, T/C", "setting": "second compound 0.00316 µM, first compound 0.3 µM", "value": 81.5, "unit": "%"}, {"measurement": "viability, T/C", "setting": "second compound 0.00316 µM, first compound 0.949 µM", "value": 57.9, "unit": "%"}, {"measurement": "viability, T/C", "setting": "second compound 0.00316 µM, first compound 3 µM", "value": 23.4, "unit": "%"}, {"measurement": "viability, T/C", "setting": "second compound 0.01 µM, first compound 0.00949 µM", "value": 95.6, "unit": "%"}, {"measurement": "viability, T/C", "setting": "second compound 0.01 µM, first compound 0.03 µM", "value": 103, "unit": "%"}, {"measurement": "viability, T/C", "setting": "second compound 0.01 µM, first compound 0.0949 µM", "value": 96.1, "unit": "%"}, {"measurement": "viability, T/C", "setting": "second compound 0.01 µM, first compound 0.3 µM", "value": 84.2, "unit": "%"}, {"measurement": "viability, T/C", "setting": "second compound 0.01 µM, first compound 0.949 µM", "value": 46, "unit": "%"}, {"measurement": "viability, T/C", "setting": "second compound 0.01 µM, first compound 3 µM", "value": 20.8, "unit": "%"}, {"measurement": "viability, T/C", "setting": "second compound 0.0316 µM, first compound 0.00949 µM", "value": 97.6, "unit": "%"}, {"measurement": "viability, T/C", "setting": "second compound 0.0316 µM, first compound 0.03 µM", "value": 92.8, "unit": "%"}, {"measurement": "viability, T/C", "setting": "second compound 0.0316 µM, first compound 0.0949 µM", "value": 92.9, "unit": "%"}, {"measurement": "viability, T/C", "setting": "second compound 0.0316 µM, first compound 0.3 µM", "value": 60.8, "unit": "%"}, {"measurement": "viability, T/C", "setting": "second compound 0.0316 µM, first compound 0.949 µM", "value": 38.4, "unit": "%"}, {"measurement": "viability, T/C", "setting": "second compound 0.0316 µM, first compound 3 µM", "value": 11.8, "unit": "%"}, {"measurement": "viability, T/C", "setting": "second compound 0.1 µM, first compound 0.00949 µM", "value": 79.4, "unit": "%"}, {"measurement": "viability, T/C", "setting": "second compound 0.1 µM, first compound 0.03 µM", "value": 69.9, "unit": "%"}, {"measurement": "viability, T/C", "setting": "second compound 0.1 µM, first compound 0.0949 µM", "value": 66.2, "unit": "%"}, {"measurement": "viability, T/C", "setting": "second compound 0.1 µM, first compound 0.3 µM", "value": 46, "unit": "%"}, {"measurement": "viability, T/C", "setting": "second compound 0.1 µM, first compound 0.949 µM", "value": 29.9, "unit": "%"}, {"measurement": "viability, T/C", "setting": "second compound 0.1 µM, first compound 3 µM", "value": 4.42, "unit": "%"}, {"measurement": "viability, T/C", "setting": "second compound 0.316 µM, first compound 0.00949 µM", "value": 57.9, "unit": "%"}, {"measurement": "viability, T/C", "setting": "second compound 0.316 µM, first compound 0.03 µM", "value": 46.5, "unit": "%"}, {"measurement": "viability, T/C", "setting": "second compound 0.316 µM, first compound 0.0949 µM", "value": 41.3, "unit": "%"}, {"measurement": "viability, T/C", "setting": "second compound 0.316 µM, first compound 0.3 µM", "value": 28.8, "unit": "%"}, {"measurement": "viability, T/C", "setting": "second compound 0.316 µM, first compound 0.949 µM", "value": 16.7, "unit": "%"}, {"measurement": "viability, T/C", "setting": "second compound 0.316 µM, first compound 3 µM", "value": 2.27, "unit": "%"}, {"measurement": "viability, T/C", "setting": "second compound 1 µM, first compound 0.00949 µM", "value": 35.4, "unit": "%"}, {"measurement": "viability, T/C", "setting": "second compound 1 µM, first compound 0.03 µM", "value": 34.2, "unit": "%"}, {"measurement": "viability, T/C", "setting": "second compound 1 µM, first compound 0.0949 µM", "value": 30.1, "unit": "%"}, {"measurement": "viability, T/C", "setting": "second compound 1 µM, first compound 0.3 µM", "value": 19.6, "unit": "%"}, {"measurement": "viability, T/C", "setting": "second compound 1 µM, first compound 0.949 µM", "value": 9.79, "unit": "%"}, {"measurement": "viability, T/C", "setting": "second compound 1 µM, first compound 3 µM", "value": 1.11, "unit": "%"}]}]}
